# Assay results as given in ChEMBL document CHEMBL3507680, “University of Dundee, Gates Library screen for HepG2 cell viability”.
# Experiment: Human HepG2 cell viability assay in 384 well format
# Assay type: toxicity, cell-based
# Design: dose 125 nL, time 70.5 hour; cytotoxicity at 70.5 h: concentration not given beside the values
# Conditions: HepG2 cells, read-out: Inhibition
row,SMILES,cytotoxicity at 70.5 h
1,Cc1nc(C)c(C(=O)N2CCCc3c(F)ccc(F)c32)o1,-9.33%
2,Cc1c(F)cccc1S(=O)(=O)N(C)CC(C)O (centres undefined),-11.6%
3,CN(CC(=O)N1CCCC1)C(=O)c1cccn1CCc1ccccc1,-7.1%
4,COc1ccc(F)cc1CN1CCN(Cc2nccn2C)C(C)C1 (centres undefined),9.37%
5,COc1cc(CNC2CCCN(c3ncccn3)C2)cc2c1OCO2 (centres undefined),-5.86%
6,COc1ccccc1-c1csc(-c2cccc(C(=O)O)c2)n1,-4.2%
7,CN1CCOC(CNC(=O)CCc2cc(F)ccc2F)C1 (centres undefined),-4.57%
8,COc1ccc(-c2csc(-c3cccc(C(=O)O)c3)n2)cc1OC,-9.98%
9,CCC(CC)(CNC(=O)OC(C)(C)C)NC(=O)C1CCCO1 (centres undefined),-3.25%
10,CCOc1ccc(NC2CCN(CC(F)(F)F)C2=O)cc1C (centres undefined),-5.71%
11,CSc1ccc(NCC(=O)NCC(=O)N2CCCC2)cc1F,-2.3%
12,CSc1ccc(NCC(=O)NC(=O)NCC(F)(F)F)cc1F,19.5%
13,Cc1cnn(CCNCC(=O)Nc2ccc(Br)cn2)c1,-4.64%
14,O=C(Cc1cccs1)N1CCOCC1c1ccccc1 (centres undefined),15.2%
15,CN(Cc1ccsc1)C(=O)c1cc(S(=O)(=O)N(C)C)ccc1Cl,-7.18%
16,CS(=O)(=O)N1CCCCCC1C1CCN(Cc2nc(C3CC3)no2)CC1 (centres undefined),5.88%
17,CCOCC1CCCN(C(=O)NCc2cn3c(C)cccc3n2)C1 (centres undefined),9.89%
18,Cc1cnc(CN(Cc2ccc(Cl)s2)C2CCN(C)C2)o1 (centres undefined),-9.93%
19,CC(=O)N(Cc1ncc(C)o1)C1CCN(Cc2cccnc2)C1 (centres undefined),2.44%
20,Cc1ccc(CNCc2nnc3n2CC(C(F)(F)F)CC3)o1 (centres undefined),2.88%
21,Cc1c(C(=O)N2CCCSCC2)nnn1-c1ccccc1Cl,-8.81%
22,CCNC(=O)NC(=O)C(C)N(C)CCOc1ccccc1C (centres undefined),-12.4%
23,Cc1cc(C)c(CNC(=O)C(C)Oc2ccccc2C#N)c(=O)[nH]1 (centres undefined),-13.5%
24,Cc1cc(C)c(CNC(=O)C(C)Oc2cccc(C#N)c2)c(=O)[nH]1 (centres undefined),-11.6%

row,SMILES,cytotoxicity at 70.5 h
1,Cc1nc(CCNC(=O)NCC(c2ccco2)N(C)C)cs1 (centres undefined),-14.9%
2,Cc1cc(C)c(CNC(=O)C(C)Oc2ccccc2F)c(=O)[nH]1 (centres undefined),2.57%
3,COc1ccc2oc(C(C)NC(=O)NCc3noc(C)n3)c(C)c2c1 (centres undefined),-12%
4,Cc1cc(C)n(-c2cncc(NCCNC(=O)C3CCCC3)n2)n1,-9.3%
5,CC(C)n1cc(S(=O)(=O)N2CCCC(N3CCCCC3)C2)cn1 (centres undefined),-16.1%
6,CN(Cc1nccn1C)S(=O)(=O)N1CCCC1c1ccco1 (centres undefined),-11.4%
7,Cc1ccc(C2CCCN2S(=O)(=O)N(C)Cc2nccn2C)o1 (centres undefined),5.77%
8,O=C(NCc1ccc2c(c1)OCO2)c1ccc(N2CCCCCC2)nc1,2.76%
9,O=C(Nc1nc(-c2ccccc2)ns1)N1CCC(CO)CC1,-12.6%
10,Cc1cc(C)n(-c2cncc(NCCNC(=O)C(C)(C)C)n2)n1,-9.22%
11,COc1ccc(CNCc2nnc3n2CC(C(F)(F)F)CC3)cc1 (centres undefined),26.4%
12,CCc1nnc(SC2CCCN(c3cnn(C)c3)C2=O)n1C (centres undefined),-12.6%
13,CCc1nnc2n1CCN(CC(=O)N(CC)C1=CCCCC1)C2,14.1%
14,Cc1ncsc1CN(C)Cc1cc2c(cc1OC(F)F)OCO2,5.16%
15,Cc1nn(C)c(N(C)C)c1CNCc1ccc(Cn2cccn2)cc1,-4.86%
16,CCn1c(C)nnc1CN(C)C1CCN(Cc2ccccn2)C1 (centres undefined),-2.44%
17,O=C(NCC1CC1)c1cc(Cl)c2c(c1)OCCCO2,8.95%
18,COc1ccc(C)cc1CNC(=O)C1=NN(c2ccccc2)C(=O)CN1,-5.19%
19,COc1ncccc1CNC(=O)C1=NN(c2ccccc2)C(=O)CN1,0.82%
20,O=C(NCc1ccccn1)NCC(c1ccco1)N1CCCCC1 (centres undefined),-5.04%
21,Cc1nc(CN2CCN(C(=O)CC(C)(C)c3ccccc3)CC2)no1,-5.37%
22,O=C(Cn1cc(I)cn1)N1CCOCC1,-3.24%
23,C[S+]([O-])c1nncn1CC(=O)c1ccc2c(c1)CCC2 (centres undefined),8.46%
24,COc1ccccc1NC(=O)NC(C)c1nc[nH]n1 (centres undefined),0.321%

row,SMILES,cytotoxicity at 70.5 h
1,CC(NC(=O)Nc1ccc(F)c(F)c1)c1nc[nH]n1 (centres undefined),-2.38%
2,CS(=O)(=O)NC(=O)c1cc(Cl)c2c(c1)OCCCO2,0.437%
3,CCN1CC(C(=O)NC(C)(C)C)CC1=O (centres undefined),-6.02%
4,CCC(C)(NCc1cccc(NC(C)=O)c1)c1nc(C)cs1 (centres undefined),-0.722%
5,Cc1nn(C)c(N(C)C)c1CNCc1ccc(N(C)C)nc1,-2.4%
6,Cc1cc(C(=O)Cn2cnnc2[S+](C)[O-])cc(C)c1F (centres undefined),33.6%
7,Cc1ccc(CNCc2c(C)nn(C)c2N(C)C)cn1,-3.06%
8,CCC(C)(NCC(=O)NC(C)C)c1nc(C)cs1 (centres undefined),-3.79%
9,CC(C)CCN1CCN(Cc2nc(C(C)C)no2)CC1,-0.333%
10,CCCc1noc(CN2CCN(CCC(C)C)CC2)n1,-2.49%
11,CCc1cc(CNC(=O)NCC(c2ccco2)N2CCCC2)[nH]n1 (centres undefined),-3.15%
12,Cc1nc(CN2CCN(C(=O)CCc3cccnc3)CC2)no1,16.4%
13,Cc1cc(C(N)=O)ccc1NC(=O)c1nc(N2CCCCC2)ncc1Cl,3.51%
14,O=C(Nc1ccc(N2CCCCC2)nc1)N1CCc2sccc2C1,16.2%
15,COc1cc(CN(C)C(=O)NCCC(=O)NC2CCCC2)ccc1SC,14.4%
16,Cc1ccc(C(=O)NCCCN(C(C)C)S(C)(=O)=O)c(=O)[nH]1,-5.61%
17,Cc1ccc(C(=O)NCCCS(=O)(=O)c2ccccc2)c(=O)[nH]1,-4.85%
18,CN(C)c1ccc(NC(=O)N2CCc3sccc3C2)cn1,4.85%
19,O=C(c1cc2c([nH]c1=O)CCC2)N1CCCC1c1cccnc1 (centres undefined),14.6%
20,CC(C)n1c(C2CCCN(CC(=O)NC(N)=O)C2)nc2ccccc21 (centres undefined),-1.95%
21,COCCNC(=O)Nc1cc2c(cc1SC)OCCO2,-4.52%
22,CCc1nc(CCNC(=O)C2CC2)sc1C,-1.22%
23,c1cc(CCN2CCC(NCc3ccsc3)CC2)ccn1,15.8%
24,CSc1cc2c(cc1NC(=O)NCC1CCOC1)OCCO2 (centres undefined),-1.8%

row,SMILES,cytotoxicity at 70.5 h
1,CC(CNC(=O)N1CCNC(=O)CC1)Cc1cccs1 (centres undefined),0.139%
2,CSc1ccc(CNC2CCN(CCc3ccncc3)CC2)cc1,-1.82%
3,Cc1occc1-c1nc(-c2cccc(CN3CCOCC3)c2)no1,0.585%
4,CCSC1(CNc2ncc(Br)cn2)CCOCC1,-5.62%
5,COc1cccc(CNc2cc(C)nc(-c3ccncc3)n2)c1O,-7.57%
6,Cc1cc(-c2nc(-c3cccc(CN4CCOCC4)c3)no2)no1,0.395%
7,Cc1c(-c2nc(-c3cccc(CN4CCOCC4)c3)no2)cnn1C,-13.7%
8,CCCc1nc(CNc2cccc(C(=O)N3CCCC(O)C3)c2)no1 (centres undefined),-4.84%
9,FC(F)(F)c1cccnc1N1CCC(OC2CCOCC2)CC1,-6.19%
10,O=C(N1CCC(Oc2ccncc2)C1)C1(c2ccc(F)cc2)CC1 (centres undefined),5.93%
11,CS(=O)(=O)Cc1nc(CNc2c(F)cc(F)cc2F)cs1,-2.82%
12,CS(=O)(=O)Cc1nc(CNc2ccc(F)c(F)c2)cs1,-6.66%
13,Cc1ccc2cc(C(=O)N3CCCCC3c3nc[nH]n3)ccc2n1 (centres undefined),11.1%
14,NS(=O)(=O)CC1CCN(c2ncccc2C(F)(F)F)CC1,7.95%
15,O=C(N1CCC(Oc2ccncc2)C1)C1(c2ccccc2F)CC1 (centres undefined),-16.9%
16,CCCc1nn(C2CCN(C3CC3)C2=O)c(=O)o1 (centres undefined),-5.48%
17,CCCc1nn(C2CCCN(C(C)C)C2=O)c(=O)o1 (centres undefined),-9.22%
18,Cc1noc(CNc2ccccc2C(=O)N2CCCC(O)C2)n1 (centres undefined),5.5%
19,Cc1n[nH]c(C2CN(CCCOc3cccc(Cl)c3)CCO2)n1 (centres undefined),-14.2%
20,CC(=O)N1CCC(CCNC(C)Cc2ccc(F)cc2)CC1 (centres undefined),-13.1%
21,CC(CCSc1ccccc1)N1CCN(C(=O)c2cccs2)CC1 (centres undefined),35.4%
22,CC(CCSc1ccccc1)N1CCN(C(=O)c2ccccc2O)CC1 (centres undefined),36.1%
23,CNC(=O)C1CCN(Cc2cc3c(cc2O)CCC3)CC1,27%
24,c1ccn2cc(CN3CCCC(c4ccn[nH]4)C3)nc2c1 (centres undefined),25.3%

row,SMILES,cytotoxicity at 70.5 h
1,COC(=O)NCC(=O)NC1CC(C)(C)Cc2oc(C)cc21 (centres undefined),1.57%
2,CCNC(=O)N(Cc1cccc(OC)c1)C1CCC(O)CC1 (centres undefined),2.57%
3,CC(C)(C)c1cc(NC(=O)CN2CCCC2Cn2cncn2)on1 (centres undefined),21.1%
4,CCN(C(=O)c1ccc(-c2ccccc2)nc1C)C1CC(=O)NC1=O (centres undefined),-5.68%
5,CC(C)(C)NS(=O)(=O)c1ccccc1CNCc1cccc(O)c1,3.89%
6,CC(C)NS(=O)(=O)c1ccccc1CNCc1cccc(O)c1,-3.47%
7,O=C(c1ncoc1C1CCCO1)N1CCCC2(CCCCC2)C1 (centres undefined),-2.37%
8,Cc1n[nH]c(C2CN(C(=O)c3cc(C)sc3C)CCO2)n1 (centres undefined),-6.3%
9,CCC(NC(=O)Nc1ccc(OC)c(C)c1)c1ccncc1 (centres undefined),-4.85%
10,O=C(NC1CC1)NC(c1ccc(F)cc1)C1CC1 (centres undefined),-7.03%
11,O=C(NCCCOC1CCOC1)NC(C1CC1)C1CC1 (centres undefined),5.31%
12,CCC(c1ccccc1)N1CCN(C(=O)c2cc(C(N)=O)c[nH]2)CC1 (centres undefined),-4.98%
13,O=C(Nc1cccn(CC(F)(F)F)c1=O)c1ccc(F)cc1,19.4%
14,Cc1ccc(C(C)(O)CNC(=O)c2sccc2Br)o1 (centres undefined),4.05%
15,O=C(Nc1nncs1)N(Cc1cccc(O)c1)C1CC1,-4.79%
16,Cc1cccn2cc(CN3CCCC(O)C3)nc12 (centres undefined),-2.97%
17,CC(C)OCCN1CCN(C(=O)c2cccc(-n3cccn3)n2)CC1,-0.664%
18,COCCN(C)c1ccc(NCc2cscn2)nc1,24.9%
19,CCn1cc(CNc2ccc(N(C)CCOC)cn2)cn1,-2.51%
20,CCC1CN(c2cnn(C)c(=O)c2Cl)CCO1 (centres undefined),5.82%
21,Cc1ncsc1CCN1CCN(C(=O)c2ccc(=O)[nH]c2)CC1,-1.09%
22,O=C(NCCn1ccnc1)c1cccc(Br)c1,-13%
23,O=C(NCCn1ccnc1)c1cc(Br)c[nH]1,-8.18%
